From PubChem BioAssay (NCI)
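Grown in 96-well plates, cells were treated for 48 hours with each compound at five concentrations. Insufficient inhibition: endpoint recorded as highest concentration tested. At the TGI there is no net growth.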

Assays:
Assay in all cases: DTP human tumour cell line panel, 48 h
CAKI-1 renal = tested on: CAKI-1 renal
HS 578T breast = tested on: HS 578T breast
COLO 205 colon = tested on: COLO 205 colon
NCI-H23 lung = tested on: NCI-H23 lung
TK-10 renal = tested on: TK-10 renal
MDA-N = tested on: MDA-N
EKVX NSCLC = tested on: EKVX NSCLC
SNB-75 CNS = tested on: SNB-75 CNS
SW-620 colon = tested on: SW-620 colon
MDA-MB-231 breast = tested on: MDA-MB-231 breast

Structure (SMILES): CCOC(=O)c1cccc(NC(=O)CCl)c1
- TGI (CAKI-1 renal): 3.42 µM
- TGI (HS 578T breast): 11 µM
- TGI (COLO 205 colon): 23.5 µM
- TGI (NCI-H23 lung): 13.1 µM
- TGI (TK-10 renal): 15 µM
- TGI (MDA-N): 14.7 µM
- TGI (EKVX NSCLC): 8.9 µM
- TGI (SNB-75 CNS): 9.22 µM
- TGI (SW-620 colon): 16.5 µM
- TGI (MDA-MB-231 breast): 14.5 µM

Structure (SMILES): O=C(c1ccccc1)c1ccc2c(c1)nc1n2C(c2c(Cl)cccc2Cl)SC1 (stereo unspecified)
- TGI (CAKI-1 renal): > 100 µM
- TGI (HS 578T breast): > 100 µM
- TGI (COLO 205 colon): > 100 µM
- TGI (NCI-H23 lung): > 100 µM
- TGI (TK-10 renal): > 100 µM
- TGI (MDA-N): > 100 µM
- TGI (EKVX NSCLC): > 100 µM
- TGI (SNB-75 CNS): > 100 µM
- TGI (SW-620 colon): > 100 µM
- TGI (MDA-MB-231 breast): > 100 µM

Structure (SMILES): COC(=O)c1c2c(cc3c1CC1(Cc4ccccc4C1=O)C3)CCC2 (stereo unspecified)
- TGI (CAKI-1 renal): > 100 µM
- TGI (HS 578T breast): > 100 µM
- TGI (COLO 205 colon): 23.4 µM
- TGI (NCI-H23 lung): > 100 µM
- TGI (TK-10 renal): > 100 µM
- TGI (MDA-N): 34.2 µM
- TGI (EKVX NSCLC): > 100 µM
- TGI (SNB-75 CNS): > 100 µM
- TGI (SW-620 colon): > 100 µM
- TGI (MDA-MB-231 breast): > 100 µM

Structure (SMILES): Cc1ccc(C)n1-c1ccccc1C1SCCCS1
- TGI (CAKI-1 renal): > 100 µM
- TGI (HS 578T breast): > 100 µM
- TGI (COLO 205 colon): > 100 µM
- TGI (NCI-H23 lung): > 100 µM
- TGI (TK-10 renal): > 100 µM
- TGI (MDA-N): > 100 µM
- TGI (EKVX NSCLC): > 100 µM
- TGI (SNB-75 CNS): > 100 µM
- TGI (SW-620 colon): > 100 µM
- TGI (MDA-MB-231 breast): > 100 µM

Structure (SMILES): C1=C\SS/C=C\SS/C=C\SS/C=C\SS/1
- TGI (CAKI-1 renal): > 100 µM
- TGI (HS 578T breast): > 100 µM
- TGI (COLO 205 colon): > 100 µM
- TGI (NCI-H23 lung): > 100 µM
- TGI (TK-10 renal): > 100 µM
- TGI (MDA-N): > 100 µM
- TGI (EKVX NSCLC): > 100 µM
- TGI (SW-620 colon): > 100 µM
- TGI (MDA-MB-231 breast): > 100 µM

Structure (SMILES): COC(=O)[C@H](Cc1ccccc1)NC(=O)c1ccc(CNC(=O)/C=C/c2ccc(-c3ccccc3)cc2)cc1
- TGI (CAKI-1 renal): > 100 µM
- TGI (HS 578T breast): 54.5 µM
- TGI (COLO 205 colon): > 100 µM
- TGI (NCI-H23 lung): > 100 µM
- TGI (TK-10 renal): > 100 µM
- TGI (MDA-N): > 100 µM
- TGI (EKVX NSCLC): > 100 µM
- TGI (SNB-75 CNS): 48.3 µM
- TGI (SW-620 colon): > 100 µM
- TGI (MDA-MB-231 breast): 76.7 µM

Structure (SMILES): O=C(Cn1c(=O)oc2ccc(C(=O)c3ccc(F)cc3)cc21)c1ccc([N+](=O)[O-])cc1
- TGI (CAKI-1 renal): > 100 µM
- TGI (HS 578T breast): 53.5 µM
- TGI (COLO 205 colon): > 100 µM
- TGI (NCI-H23 lung): > 100 µM
- TGI (TK-10 renal): > 100 µM
- TGI (MDA-N): 60.9 µM
- TGI (SNB-75 CNS): > 100 µM
- TGI (SW-620 colon): > 100 µM
- TGI (MDA-MB-231 breast): > 100 µM

Structure (SMILES): COC(=O)N1CC2(CO)C3CC=C(C(=O)Nc4ccccc4Br)C2C1C3Br (stereo unspecified)
- TGI (CAKI-1 renal): > 50 µM
- TGI (HS 578T breast): > 50 µM
- TGI (COLO 205 colon): > 50 µM
- TGI (NCI-H23 lung): > 50 µM
- TGI (TK-10 renal): > 50 µM
- TGI (MDA-N): > 50 µM
- TGI (EKVX NSCLC): > 50 µM
- TGI (SNB-75 CNS): > 50 µM
- TGI (SW-620 colon): > 50 µM
- TGI (MDA-MB-231 breast): > 50 µM

Structure (SMILES): CC1=NN(c2nc(N)nc(-c3ccccc3S(N)(=O)=O)n2)C(C)(C)C1
- TGI (CAKI-1 renal): > 100 µM
- TGI (HS 578T breast): > 100 µM
- TGI (NCI-H23 lung): > 100 µM
- TGI (TK-10 renal): > 100 µM
- TGI (MDA-N): > 100 µM
- TGI (EKVX NSCLC): > 100 µM
- TGI (SW-620 colon): > 100 µM
- TGI (MDA-MB-231 breast): > 100 µM

Structure (SMILES): Nc1nc(Cl)cc(NCC2(O)CC(CO)C2)n1 (stereo unspecified)
- TGI (CAKI-1 renal): > 100 µM
- TGI (HS 578T breast): > 100 µM
- TGI (COLO 205 colon): > 100 µM
- TGI (NCI-H23 lung): > 100 µM
- TGI (TK-10 renal): > 100 µM
- TGI (MDA-N): > 100 µM
- TGI (EKVX NSCLC): > 100 µM
- TGI (SNB-75 CNS): > 100 µM
- TGI (SW-620 colon): > 100 µM
- TGI (MDA-MB-231 breast): > 100 µM

Structure (SMILES): CC(C)(C)OC(=O)CN1CCNCCNCC1
- TGI (CAKI-1 renal): > 100 µM
- TGI (HS 578T breast): > 100 µM
- TGI (COLO 205 colon): > 100 µM
- TGI (NCI-H23 lung): > 100 µM
- TGI (TK-10 renal): > 100 µM
- TGI (MDA-N): > 100 µM
- TGI (EKVX NSCLC): > 100 µM
- TGI (SNB-75 CNS): > 100 µM
- TGI (SW-620 colon): > 100 µM
- TGI (MDA-MB-231 breast): > 100 µM
